The record followed here is paper PMC4536076, “Chemical Library Screening and Structure-Function Relationship Studies Identify Bisacodyl as a Potent and Selective Cytotoxic Agent Towards Quiescent Human Glioblastoma Tumor Stem-Like Cells” (PLoS ONE, 2015).

The test system of assay [1] is proliferating TG1 GSCs. Description: ATP-Glo dose-response, proliferating TG1 GSCs. The format is cell-based, human. The note with it: SAR study, ATP-Glo cell survival assay, 24 h, triplicate; for EC50: Homo sapiens, read-out: Proliferating TG1 GSCs EC50. Here is the method:
(§1) The EC50 value was determined for each compound by fitting the data points according to the following equation: y=Smax+Smin*(x*1/EC50)^n/1+(x*1/EC50)^n where y represents the expected response, x is the chemical compound concentration, S max and S min are the maximum and minimum responses recorded, respectively and n is the Hill coefficient. Curve fitting was performed using Microsoft Excel Solver component.
(§2) Proliferating or quiescent TG1 cells were seeded in 50 μL of their respective media (30 000 and 40 000 viable cells/well, respectively) into 96-well opaque bottom plates (Greiner, Courtaboeuf, France). Compound treatment was performed by adding 50 μL of compound solutions (in the presence of 2% DMSO in culture medium). […] All compounds were tested in triplicate in each experiment. Independent experiments were performed at least twice for almost all of the compounds.

For assay [2], the system named is quiescent TG1 GSCs. Description: ATP-Glo dose-response, quiescent TG1 GSCs. The note with it: for Quiescent TG1 GSCs EC50 / EC50: SAR study, ATP-Glo cell survival assay, 24 h, triplicate; for EC50: Homo sapiens, read-out: Quiescent TG1 GSCs EC50; for fold increase in EC50 (activity decrease) compared to DDPM (compound 2): quiescent TG1 GSCs. It is filed as cell-based, human. On the procedure:
as §1, §2

In assay [3] the test system is proliferating TG1 GSCs. The note with it: primary screen, 50 μM, 24 h. On the procedure:
(§3) Proliferating or quiescent TG1 GSCs were seeded (30 000 and 40 000 viable cells/well, respectively) into 96-well opaque bottom plates (Greiner) with the Biomek FX robot (Beckman Coulter). Each compound from the Prestwick Library was then added (final concentration: 50 μM; 1% DMSO). Each molecule was tested once. Negative control wells (12/96 per assay plate) contained cells treated with 1% DMSO (final concentration) and positive control wells (4/96 per assay plate) contained cells treated with the fungal toxin ophiobolin A (Sigma Aldrich) at 50 μM with 1% DMSO. […] Luminescence in each well was measured with the Victor3 plate reader (PerkinElmer).
(§4) Relative ATP levels in each well were determined by calculating the percentage of luminescent signal in the well with respect to the average signal measured in negative control wells.
(§5) Primary screen hits were further tested in duplicate, at two concentrations (50 and 5 μM) on proliferating and quiescent TG1 GSCs. Cell plating and treatment with compounds were as for the primary screen. Hit selection/confirmation criteria for quiescent cells were as described above.

Assay [4] deals with fetal neural stem cells (f-NSC). Nature of the assay: ATP-Glo dose-response, fetal neural stem cells. The format is cell-based. The note with it: Homo sapiens, Neural stem cell; ATP Glo readout, 24 h treatment.
The test system of the next assay is proliferating TG16 GSCs. Nature of the assay: ATP-Glo dose-response, proliferating TG16 GSCs. It is filed as cell-based, human. The note with it: ATP Glo readout, 24 h treatment; read-out: P TG16 GSCs EC50. On the procedure:
as §1
(§6) Similar dose response curves were performed using GSCs isolated from GBM of two other patients (TG16 and OB1 GSCs) grown under proliferating and quiescent conditions.

In assay [5] the test system is quiescent TG1 GSCs. To be noted: primary screen, 50 μM, 24 h. On the procedure: as §3, §4, §5
The test system of assay [6] is primary astrocytes (HA cells). Description: ATP-Glo dose-response, primary astrocytes. The format is cell-based, human. To be noted: ATP Glo readout, 24 h treatment.
A further assay deals with HEK 293 cells. Nature of the assay: ATP-Glo dose-response, HEK 293 cells. The note with it: ATP Glo readout, 24 h treatment. The format is cell-based, human. Here is the method:
The EC50 value was determined for each compound by fitting the data points according to the following equation: y=Smax+Smin*(x*1/EC50)^n/1+(x*1/EC50)^n where y represents the expected response, x is the chemical compound concentration, S max and S min are the maximum and minimum responses recorded, respectively and n is the Hill coefficient. Curve fitting was performed using Microsoft Excel Solver component. […]

The next assay has as its system quiescent TG16 GSCs. Description: ATP-Glo dose-response, quiescent TG16 GSCs. The format is cell-based, human. The note with it: ATP Glo readout, 24 h treatment; read-out: Q TG16 GSCs EC50. On the procedure:
as §1, §6

A further assay relates to quiescent OB1 GSCs. Nature of the assay: ATP-Glo dose-response, quiescent OB1 GSCs. It is filed as cell-based, human. To be noted: ATP Glo readout, 24 h treatment; read-out: Q OB1 GSCs EC50. Here is the method:
as §1, §6

Take `Oc1ccc(Cc2ccccn2)cc1` [Compound 8, 2-(4-Hydroxybenzyl)pyridine]: the “Proliferating TG1 GSCs EC50” value in the assay on proliferating TG1 GSCs [1] was “No activity”. Besides, the “Quiescent TG1 GSCs EC50” value in the assay with quiescent TG1 GSCs [2] is reported as “No activity”.

Regarding `Oc1ccc(Cc2ccc(O)cc2)cc1` [Compound 13, Bis(4-hydroxyphenyl)methane], the “Proliferating TG1 GSCs EC50” value in the assay with proliferating TG1 GSCs [1] is listed as “No activity”. Besides, in the assay with quiescent TG1 GSCs [2], the “Quiescent TG1 GSCs EC50” value is recorded as “No activity”.

Turning to `Oc1ccc(C(c2ccncc2)c2ccc(O)cc2)cc1` [Compound 16, 4,4'-dihydroxyphenyl-4-pyridinyl-methane], the EC50 with proliferating TG1 GSCs [1] is greater than 100 µM. In the assay on quiescent TG1 GSCs [2], the half-maximal effective concentration (EC50) turned out to be 39 ± 2 µM and the “fold increase in EC50 (activity decrease) compared to DDPM (compound 2)” value is given as ~ 40 fold.

Turning to `COc1ccc(CCN2CCC(Nc3nc4ccccc4n3Cc3ccc(F)cc3)CC2)cc1` [Astemizole], in the assay with proliferating TG1 GSCs [3], the “Activity on proliferating TG1 GSCs (hit compounds reducing ATP levels)” value is “yes”. This molecule also registered an EC50 in [4] of 6.3 ± 0.2 µM.

With `Oc1ccc(C(c2ccccn2)c2ccccc2O)cc1` (stereo not drawn) [Compound 9, (2-hydroxyphenyl)-(4-hydroxyphenyl)-(pyridin-2-yl)-methane], in the assay on proliferating TG1 GSCs [1], the “Proliferating TG1 GSCs EC50” value is recorded as “No activity”. Moreover, the concentration giving a half-maximal response (EC50) in the assay with quiescent TG1 GSCs [2] came out at 57.6 ± 0.7 µM.

On to `CC(C)(C)OC(=O)NCCCCCCNC(=O)CCCC#Cc1cccc(C(c2ccc(O)cc2)c2ccc(O)cc2)n1` [Compound 19, tert-butyl(6-(6-(6-(bis(4-hydroxyphenyl)methyl)pyridin-2-yl)hex-5-ynamido)hexyl)carbamate], for which, in the assay with proliferating TG1 GSCs [1], the “Proliferating TG1 GSCs EC50” value is “No activity”. The EC50 with quiescent TG1 GSCs [2] amounted to 3.84 µM.

Take `Oc1ccc(C(c2ccc(Cl)cc2)c2ccccn2)cc1` (stereo not drawn) [Compound 10, 4-hydroxyphenyl-4-chlorophenyl-pyridin-2-yl-methane]: the figures for the EC50 in the assay with proliferating TG1 GSCs [1] and in the assay with quiescent TG1 GSCs [2] were greater than 100 µM and 4 ± 1.4 µM, respectively.

As for `COc1ccc(C(c2ccc(O)cc2)c2ccccn2)cc1` (stereo not drawn) [Compound 5, 4-hydroxyphenyl-4-methoxyphenyl-(pyridin-2-yl)-methane], the results for the EC50 with proliferating TG1 GSCs [1] and in the assay with quiescent TG1 GSCs [2] were greater than 100 µM and 8 ± 6 µM, respectively. Further, the “fold increase in EC50 (activity decrease) compared to DDPM (compound 2)” value in the assay with quiescent TG1 GSCs [2] worked out at 8 fold.

Turning to `Oc1ccc(C(c2ccc(O)cc2)c2cccnc2)cc1` [Compound 15, 4,4'-dihydroxyphenyl-3-pyridinyl-methane], in the assay on proliferating TG1 GSCs [1], the EC50 is greater than 100 µM. Moreover, in the assay with quiescent TG1 GSCs [2], the EC50 amounted to 8 ± 3 µM and the “fold increase in EC50 (activity decrease) compared to DDPM (compound 2)” value was ~ 8 fold.

As for `CC(=O)Oc1ccc(C(c2ccc(OC(C)=O)cc2)c2cccc[n+]2C)cc1` [Compound 14, 2-(bis(4-acetoxyphenyl)methyl)-1-methylpyridinium iodide], the EC50 in the assay on proliferating TG1 GSCs [1] and in the assay on quiescent TG1 GSCs [2] was greater than 100 µM throughout.

For the molecule Beta-Escin, the EC50 in the assay with proliferating TG16 GSCs was determined as 6 ± 1 µM; in assay [6] it was 7 ± 1 µM; in the assay on HEK 293 cells, 31 ± 1 µM; in the assay on quiescent TG16 GSCs, 8 ± 1 µM; in the assay on quiescent OB1 GSCs, 6 ± 1 µM. Further, in the assay with proliferating TG1 GSCs [3], the “Activity on proliferating TG1 GSCs (hit compounds reducing ATP levels)” value was “yes”. The “Activity on quiescent TG1 GSCs (hit compounds reducing ATP levels)” value in the assay on quiescent TG1 GSCs [5] is “yes”.

In general, EC50 refers to the concentration at which the effect is half-maximal.
